Assay results as given in US4994446A, “Drug system” (Ramot - University Authority for Applied Research and …, priority 1989, dated 1991).
Structures can show the parent of a compound that is named as a salt.

Experiments:
NMDA receptor channel [1] = test: Dissociation of [3H]MK-801-receptor complexes, initiated by 100 μM unlabeled PCP; format: binding, rat
Description: (§1) Binding assays were performed in triplicate at 25° C. with repeatedly washed rat cerebral cortex membranes (80 μg protein) as described in Biochem. ibid. Assays were carried out in the absence or in the presence of 10^-4 M AP-5, or in the presence of 10 μM MgCl2 together with 1 μM L-glutamate and 1 μM glycine. Nonspecific binding was determined in samples containing 10^-4 M PCP. Data were expressed as the specific binding of [^3 H]MK-801 and analyzed according to the two-step binding model of interactions between noncompetitive blockers and the NMDA receptor channel. The model assumes a first order diffusion of the ligand from the outside into the interior of the channel, followed by association of the ligand with its receptor sites. Under the two extreme conditions employed here, viz., binding of [^3 H]MK-801 in the presence of agonists (unlimited diffusion) and in the absence of agonists (limited diffusion) the time courses of receptor occupation should respectively follow pseudo first order (eq. 1) and first order (eq. 2) kinetics:
Samples were incubated at 25° C. with 8 nM [^3 H] 801 for 2 hr. The dissociation reaction was initiated by the addition of 100 μM unlabeled PCP. […] Reactions were terminated either immediately (zero time) or at the indicated times. Bo --amount of [^3 H]MK-801 bound at zero time. Bt --amount of [^3 H] 801 bound at time t.

NMDA receptor channel [2] = test: Equilibrium binding of [3H]MK-801 (Scatchard), rat cerebral cortex membranes; conditions: for Kd: 4 hr at 25° C., read-out: Kd determined at equilibrium
Description: as §1
FIG. 2 left illustrates the equilibrium binding of [^3 H] 801. Binding of [^3 H] 801 as a function of its concentration was assayed after incubation for 4 hr at 25° C. in the absence or in the presence of glutamate and glycine. Also shown are data for [^3 H] 801 binding to the receptor measured after their incubation for 3 hr followed by an additional 1 hr of incubation in the presence of 100 μM AP-5. Data are expressed in the form of Scatchard plot.

NMDA receptor channel [3] = test: [3H]MK-801-receptor association kinetics, repeatedly washed rat cerebral cortex membranes; format: binding
Description: as §1
([RL]eq-[RL])/[RL]eq≡exp.-(k1k2[L]/kb -k- 1)t eq. 1
1-{Kd [RL]/[L](RT ]-[RL ]}=exp.-Kb t eq. 2
where L, RT, RLeq and RL are respectively the ligand, the total number of binding sites, the bound ligand at equilibrium and at time t. ka and kb are the forward and background diffusion constants; k1 and k- 1 are the second order on-rate and the first order off-rate constants for the binding process. The overall equilibrium binding constant (Kd) is given by K- 1·kb /k1·k2.
FIG. 1A illustrates the time course of association of [^3 H] 801 (5 nM) with the NMDA receptor channel. Binding was determined at 25° C. as a function of time in the absence and in the presence of glutamate and glycine or in the presence of AP-5; whereas 1B illustrates the observed time constants (Kobs) derived from the pseudo first order plots of the association of 2, 5 and 8.6 nM [^3 H] 801 in the presence of glutamate and glycine plotted as a function of the ligand concentration. FIG. 1C is a first order plot (eq. 2) of [^3 H] 801-receptor association in the absence of agonists determined with ligand concentrations of 2 nM and 8.6 nM.

[4] = presence of glutamate and glycine
[5] = 5 nM ligand, with glutamate and glycine, 25° C.

Row | SMILES | effect on rate of [3H]MK-801-receptor dissociation (NMDA receptor channel [1]; 100 μM AP-5 by itself, compared to control level) | effect on equilibrium binding of preequilibrated [3H]MK-801-receptor complexes (NMDA receptor channel [2]; 3 hr incubation, then 1 hr with 100 μM AP-5) | effect on rate of [3H]MK-801-receptor association (NMDA receptor channel [3]; AP-5 (10^-4 M) by itself, compared to control level) | dissociation rate constant (NMDA receptor channel [1]; [4]) | Kd (NMDA receptor channel [2]; absence of glutamate and glycine) | Kd (NMDA receptor channel [2]; [4]) | incubation time to reach equilibrium (NMDA receptor channel [3]; 5 nM ligand, absence of exogenous agonists, 25° C.) | association t1/2 (NMDA receptor channel [3]; [5]) | time to approach equilibrium (NMDA receptor channel [3]; [5]) | half times of the association reactions (NMDA receptor channel [3]; absence of exogenous agonists, did not vary with ligand concentration) | apparent off-rate time constant (k-1) from association (NMDA receptor channel [3]; presence of glutamate and glycine (FIG. 1B)) | Kd (NMDA receptor channel [3]; presence of glutamate and glycine, read-out: kinetically derived dissociation constant (Kd), ratio of off-rate and on-rate constants) | increase in ligand-receptor binding immediately after onset of binding (NMDA receptor channel [3]; with glutamate and glycine vs control without)
1 | N[C@H](CCCP(=O)(O)O)C(=O)O [AP-5, D(-)2-amino-5-phosphovaleric acid] | decreases the rates | did not alter the equilibrium binding | decreases the rates | – | – | – | – | – | – | – | – | – | –
2 | C[C@]12N[C@H](Cc3ccccc31)c1ccccc12 [[^3 H]MK-801, (+) 5 methyl-10,11 dihydro-5H-dibenzo[a,d]cyclohepten-5,10-imine maleate] | – | – | – | 0.1 min⁻¹ | 2.1 nM | 4.2 nM | > 6 h | ~7 min | 45 to 60 min | 60 to 70 min | 0.075 min⁻¹ | 4.8 nM | ~ 9 times that of the control
